Data set [1] deals with T1, Tomm6 (Mitochondrial import receptor subunit TOMM6 homolog) (Mus musculus, UniProt Q9CQN3).
T1 construct: hippocampi were isolated from 5-10 aged Tg2576 mice, pulverized under liquid nitrogen and solubilized; from tissue; host or cells: hippocampus of Tg2576 mice
As to the kind of experiment: Identification of Compound-1-interacting hippocampal proteins by co-migration in SDS-PAGE and nano-LC-ESI-MS/MS. It is filed as binding, Tg2576 mice. Particulars: solubilisate of hippocampal proteins supplemented with 10 microM Compound-1. Here is the method: To isolate Compound-1-interacting hippocampal proteins, hippocampi were isolated from 5-10 aged Tg2576 mice, pulverized under liquid nitrogen and solubilized for 30 min at 4° C. in solubilization buffer (1% sodium deoxycholate, 0.05% SDS, 0.05% Tween 20 in PBS, pH 7.4, supplemented with protease inhibitors). Insoluble material was removed by centrifugation. The supernatant was diluted 1:5 in PBS (supplemented with protease inhibitors). To this solubilisate, Compound-1 was added at a concentration of 10 μM. Buffer exchange into 20 mM Tris pH 7.4 was performed by centrifugation over Amicon Ultra Centrifugal Filter Units (MWCO 3 kDa; EMD Millipore Merck KGaA, Darmstadt, Germany). The concentrated proteins were dissolved in Laemmli sample buffer (Bio-Rad GmbH, Munchen, Germany) supplemented with mercaptoethanol (355 mM) and subjected to 8% SDS-PAGE under reducing conditions. Compound-1-interacting proteins were identified by co-migration, protein bands were cut and subjected to nano-LC-ES-MS/MS (performed by Proteome Factory AG, Berlin, Germany). Proteins were identified using MS/MS ion search of the Mascot search engine (Matrix Science, London, England) and nr protein database (National Center for Biotechnology Information, Bethesda, MD). […]

Data set [2] concerns HBsAg (hepatitis B virus major surface antigen). As to the kind of experiment: HBsAg aggregation in yeast, immunoblot detection of HBsAg. Type of data set: cell-based. Particulars: alizarin 10 microg/ml and 1 microg/ml (FIG. 16D). An excerpt:
Recombinant HBsAg cDNA (synthesized by GeneScript, Piscataway, N.J., USA) was inserted into the expression vector p42K-TEF (D3011001-1 Dualsystems Biotech AG, Zurich). Yeast transformants were selected in the presence of G418 in the yeast growth medium (YPD; Bacto-yeast extract 10 g/L, Bacto-peptone 20 g/L and D-Glucose […]). Yeast (Saccharomyces cerevisae) strain INVSc1 was used (Invitrogen GmbH, Nr. C810-00). After 3-4 days of cultivation to allow for protein expression, yeast cells were harvested by centrifugation, followed by washing with ice-cold PBS. The yeast cell pellet was immediately frozen at −70° C. Proteins were extracted for 30 min. at 4° C. with solubilization buffer (1% sodium deoxycholate, 0.1% SDS, 0.1% NP40, 5 mM EDTA, 50 mM Tris, pH 8.0) supplemented with protease/phosphatase inhibitors (Cat. No. P8349, and/or PPC1010, Sigma-Aldrich, St. Louis, Mo., USA). […] Protein were separated by urea-containing SDS-PAGE (7.5-10%) under reducing conditions, transferred to PVDF membranes by electrophoretic protein transfer in a tank transfer cell (Mini Trans-Blot cell, Bio-Rad GmbH, Munchen, Germany), and transferred HBsAg proteins were detected in immunoblot with HBsAg-specific antibodies raised in rabbit against an N-terminal epitope of HBsAg, or by a monoclonal HBsAg antibody produced in mouse (SAB4700767, Sigma-Aldrich, St. Louis, Mo., USA). […]

The subject of the next data set is mammalian cells. The settings on record: mammalian cells and in vivo; cited from earlier work.
The nature of data set [3]: Body weight and food intake of B6 mice under oral treatment. Particulars: oral 100 mg/kg/day for 4 weeks.

T1 sequence (Q9CQN3 whole entry): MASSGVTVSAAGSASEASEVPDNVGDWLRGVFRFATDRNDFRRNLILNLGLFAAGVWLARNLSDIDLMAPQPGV

For the molecule `O=C1c2ccccc2C(=O)c2c1ccc(O)c2O` [Compound-1, 1,2-dihydroxyanthraquinone], the “interaction with Tomm6 (co-migration)” value in data set [1] was “major Compound-1-interacting protein”. In addition, the “aggregation and assembly of HBsAg” value in data set [2] is “inhibited the aggregation and assembly of HBsAg”. The tumor promotion result in the data set with mammalian cells is “not a tumor promotor”. Further, the body weight entry in data set [3] (12-week-old B6 mice) was “did not significantly alter”. The “daily food intake / food consumption” value in data set [3] (B6 mice) is “did not significantly alter”.

The values are drawn from patent US20210186947A1, “TOMM6-INTERACTING EXTRACTS AND COMPOUNDS FOR USE IN THE TREATMENT AND PROPHYLAXIS OF NERVOUS SYSTEM DISEASES, ATHEROSCLEROSIS, HEPATITIS B INFECTION AND HUMAN PAPILLOMA VIRUS (HPV) INFECTION” (ETH ZURICH, priority 2018, published 2021).
